# Source: ChEMBL document CHEMBL1129361, “Modulators of leukotriene biosynthesis and receptor activation” (J Med Chem, 1996)
# Experiments:
# Homo sapiens [1] = species on record: Homo sapiens; assay: Compound was tested in vitro inhibitory activity against […] induced CD11 up-regulation.; format: functional, organism-based
# Homo sapiens [2] = species on record: Homo sapiens; assay: Compound was tested in vitro inhibitory activity against […] induced Ca mobilization.; format: functional, organism-based
# Homo sapiens [3] = species on record: Homo sapiens; assay: Compound was tested in vitro inhibitory activity against […] induced aggregation.; format: functional, organism-based
# Homo sapiens [4] = species on record: Homo sapiens; assay: Compound was tested in vitro inhibitory activity against […] induced chemotaxis; format: functional, organism-based
# Homo sapiens [5] = assay: Compound was tested in vivo inhibitory activity against CD11b up-regulation at 4 hours in normal volunteers.; format: functional
# [6] = target: T1, Leukotriene B4 receptor 1 (Homo sapiens, UniProt Q15722); assay: Compound was tested for inhibitory activity against Leukotriene B4 receptor binding
# T1 sequence (Q15722 whole entry): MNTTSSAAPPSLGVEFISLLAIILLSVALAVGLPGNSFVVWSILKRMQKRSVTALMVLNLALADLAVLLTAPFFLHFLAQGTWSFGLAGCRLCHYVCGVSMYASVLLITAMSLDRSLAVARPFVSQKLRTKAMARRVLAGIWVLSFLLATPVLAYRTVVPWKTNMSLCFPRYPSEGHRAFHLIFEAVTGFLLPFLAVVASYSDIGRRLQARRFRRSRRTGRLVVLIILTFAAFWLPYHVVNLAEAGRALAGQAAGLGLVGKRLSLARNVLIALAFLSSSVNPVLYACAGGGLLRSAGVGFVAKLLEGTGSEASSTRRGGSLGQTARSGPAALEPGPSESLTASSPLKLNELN
# Mus musculus [7] = assay: Compound was tested in vivo inhibitory activity against AA induced ear edema and MPO release (orally).; format: functional; settings: po
# Mus musculus [8] = assay: Compound was tested in vivo inhibitory activity against AA induced ear edema and MPO release.; format: functional
# Rattus norvegicus [9] = assay: Compound was tested in vivo inhibitory activity against rat neutropenia at 4h.; format: functional
# Rattus norvegicus [10] = assay: Compound was tested in vivo inhibitory activity against rat neutropenia at 18 h.; format: functional
# Homo sapiens [11] = species on record: Homo sapiens; assay: Compound was tested in vitro for inhibitory activity in LTB4 induced Ca mobilization.; format: functional, organism-based
# Homo sapiens [12] = species on record: Homo sapiens; assay: Compound was tested in vitro inhibitory activity against 12-R-HETE induced Ca mobilization; format: functional
# Homo sapiens [13] = species on record: Homo sapiens; assay: Compound was tested in vitro inhibitory activity against LTB4 induced neutrophil degranulation; format: functional
# [14] = target: T1, Leukotriene B4 receptor 1; assay: Compound was tested for binding affinity against human neutrophil LTB4 (leukotriene) receptor
# Mus musculus [15] = assay: Compound was tested in vivo inhibitory activity against AA induced ear edema (topically); format: functional
# Mus musculus [16] = assay: Compound was tested in vivo inhibitory activity against AA induced ear edema(orally); format: functional; settings: po
# Mus musculus [17] = assay: Compound was tested in vivo inhibitory activity against PMA induced ear edema; format: functional
# [18] = target: T2, Cysteinyl leukotriene receptor (Homo sapiens, UniProt Q9Y271+Q9NS75); assay: Binding affinity against Cysteinyl leukotriene D4 receptor; format: protein assay
# T2 sequence (Q9Y271 whole entry): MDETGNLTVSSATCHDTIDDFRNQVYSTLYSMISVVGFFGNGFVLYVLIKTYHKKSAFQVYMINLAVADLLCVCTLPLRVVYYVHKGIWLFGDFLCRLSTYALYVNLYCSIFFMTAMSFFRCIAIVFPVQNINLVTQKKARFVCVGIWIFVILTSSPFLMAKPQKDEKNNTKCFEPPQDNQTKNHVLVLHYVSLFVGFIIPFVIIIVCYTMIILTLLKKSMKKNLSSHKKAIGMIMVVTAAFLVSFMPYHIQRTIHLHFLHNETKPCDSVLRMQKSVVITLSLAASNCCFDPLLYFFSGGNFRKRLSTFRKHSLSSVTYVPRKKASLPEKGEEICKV
# T2 sequence (Q9NS75 whole entry): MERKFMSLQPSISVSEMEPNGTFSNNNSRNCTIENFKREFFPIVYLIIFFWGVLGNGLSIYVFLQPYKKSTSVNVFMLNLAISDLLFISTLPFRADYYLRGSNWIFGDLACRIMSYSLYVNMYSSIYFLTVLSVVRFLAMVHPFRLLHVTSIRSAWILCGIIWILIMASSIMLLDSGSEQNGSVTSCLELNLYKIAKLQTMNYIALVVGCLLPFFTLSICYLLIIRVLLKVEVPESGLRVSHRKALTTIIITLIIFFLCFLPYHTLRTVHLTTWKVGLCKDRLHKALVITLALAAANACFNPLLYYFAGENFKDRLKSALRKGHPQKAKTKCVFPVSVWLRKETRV
# Homo sapiens [19] = species on record: Homo sapiens; assay: Compound was tested for fold shift in LTD4 dose response curve following 800 microg aerosol dose in mild asthmatics.; format: functional
# Homo sapiens [20] = species on record: Homo sapiens; assay: Compound was tested for fold shift in LTD4 dose response curve 2 hour following 100 microg aerosol dose in normal subjects.; format: functional
# Homo sapiens [21] = assay: Compound was tested for fold shift in LTD4 bronchoconstriction dose response curve following a 400 mg oral dose.; format: functional, Lung
# Cavia porcellus [22] = assay: Compound was tested in vivo for LTB4 induced bronchoconstriction in guinea pig (2 hr pretreatment).; format: functional
# Cavia porcellus [23] = assay: Compound was tested in vivo inhibitory activity against LTB4 induced bronchoconstriction in guinea pig(orally) (20 hr pretreatment); format: functional; settings: po
# [24] = Compound was tested for in vivo inhibition against antigen bronchospasm.; format: functional; settings: Rattus norvegicus, Bronchiole
# Homo sapiens [25] = species on record: Homo sapiens; assay: Compound were tested for in vitro inhibition against human whole blood.
# RBL-1 = assay: Compound were tested for in vitro inhibition against broken RBL-1.; format: functional; settings: Rattus norvegicus
# Rattus norvegicus [26] = species on record: Rattus norvegicus; assay: Compound was tested for in vitro inhibition using FLAP binding assay
# [27] = Compound was determined in vivo in squirrel monkey antigen bronchospasm; settings: Saimiri sciureus, Bronchiole
# Cavia porcellus [28] = assay: Compound was tested in vivo inhibitory activity against LTB4 induced bronchoconstriction (intravenous); format: functional
# Cavia porcellus [29] = assay: Compound was tested in vivo inhibitory activity against LTB4 induced bronchoconstriction (orally); format: functional; settings: po
# Homo sapiens [30] = species on record: Homo sapiens; assay: Compound was tested in vitro inhibitory activity against LTB4 induced Ca mobilization; format: functional
# [31] = target: T1, Leukotriene B4 receptor 1; assay: Compound was tested for inhibitory activity against human neutrophil LTB4 receptor binding
# Homo sapiens [32] = species on record: Homo sapiens; assay: Compound was tested in vitro inhibitory activity against human neutrophil CD11b/CD18.; format: functional
# Homo sapiens [33] = assay: Fold shift in LTD4 dose response curve 24 hr following 450 mg oral dose; format: functional
# Homo sapiens [34] = species on record: Homo sapiens; assay: Fold shift in LTD4 dose response curve 3-5 hr after 5 days 450 mg bid; format: functional
# Homo sapiens [35] = species on record: Homo sapiens; assay: Fold shift in LTD4 dose response curve […] after 5 days of 450 mg bid; format: functional
# Cavia porcellus [36] = species on record: Cavia porcellus; assay: Compound was tested in vitro for inhibitory activity against guinea pig neutrophil aggregation; format: functional
# Homo sapiens [37] = species on record: Homo sapiens; assay: Compound was tested in vitro for inhibitory activity against human neutrophil aggregation.; format: functional
# Homo sapiens [38] = species on record: Homo sapiens; assay: Compound was tested in vitro for inhibitory activity against human neutrophil chemotaxis.; format: functional
# Oryctolagus cuniculus = assay: Compound was tested in vivo inhibitory activity against LTB4 induced neutropenia in rabbit (intravenous); format: functional
smiles,measurement,setting,value
COc1cc(C(=O)N(C(C)C)C(C)C)ccc1OCCCCCOc1ccc(C(=N)N)cc1 [MOXILUBANT],IC50,Homo sapiens [1],0.3 nM
same,IC50,Homo sapiens [2],2 nM
same,IC50,Homo sapiens [3],0.1 nM
same,IC50,Homo sapiens [4],2.4 nM
same,ED100,Homo sapiens [5],300 mg
same,IC50,[6],4 nM
same,ED50,Mus musculus [7],1.8 mg/kg
same,ED50,Mus musculus [8],1.4 mg/kg
same,ED50,Rattus norvegicus [9],4 mg/kg
same,ED50,Rattus norvegicus [10],11 mg/kg
O=C(O)/C=C/c1nc(CSc2c(Cl)cccc2Cl)ccc1OCCc1ccccc1 [TICOLUBANT],IC50,Homo sapiens [11],6.6 nM
same,IC50,Homo sapiens [12],1.3 nM
same,IC50,Homo sapiens [13],117 nM
same,Ki,[14],0.8 nM
same,ED50,Mus musculus [15],20 µg
same,ED50,Mus musculus [16],19 mg/kg
same,ED50,Mus musculus [17],114 µg
O=C(O)CCS[C@H](c1ccccc1CCCCCCCCc1ccccc1)[C@@H](O)C(=O)O [POBILUKAST],Ki,[18],5 nM
same,Activity,Homo sapiens [19],3
same,Activity,Homo sapiens [20],10
CCCc1c(OCCCCc2nnn[nH]2)ccc(C(C)=O)c1O [TOMELUKAST],Activity,Homo sapiens [21],4.6
CCCc1c(OCCCCCCc2cccc(OCCCCCC(=O)O)c2CCC(=O)O)ccc2c1OCCC2=O,ED50,Cavia porcellus [22],< 0.1 mg/kg
same,ED50,Cavia porcellus [23],< 1 mg/kg
CC(C)(C)Sc1c(CC(C)(C)C(=O)[O-])n(Cc2ccc(Cl)cc2)c2ccc(OCc3ccc4ccccc4n3)cc12.[Na+] [QUIFLAPON SODIUM],ED50,[24],0.16 mg/kg
same,IC50,Homo sapiens [25],510 nM
same,IC50,RBL-1,6 nM
same,T1/2,phase 1 oral half life,6 h
same,IC50,Rattus norvegicus [26],1.6 nM
same,ED50,[27],0.3 mg/kg
CCCc1c(OCCCOc2cc(O)c(-c3ccc(F)cc3)cc2CC)cccc1Oc1ccccc1C(=O)O [ETALOCIB],ED50,Cavia porcellus [28],0.04 mg/kg
same,ED50,Cavia porcellus [29],0.4 mg/kg
same,IC50,Homo sapiens [30],20 nM
same,Ki,[31],25 nM
same,IC50,Homo sapiens [32],3.9 nM
O=C(Nc1cccc2c(=O)cc(-c3nnn[nH]3)oc12)c1ccc(OCCCCc2ccccc2)cc1,Activity,Homo sapiens [33],7
same,Activity,Homo sapiens [34],28
same,Activity,Homo sapiens [35],26
COc1ccc(/C=C/CCCCOc2ccc(C(=O)c3cccc(C(=O)O)c3)cc2CCC(=O)O)cc1,IC50,Cavia porcellus [36],74 nM
same,IC50,Homo sapiens [37],100 nM
same,IC50,Homo sapiens [38],6 nM
same,ED50,Oryctolagus cuniculus,3 mg/kg
